Measured values reported in ChEMBL document CHEMBL1145750, “Synthesis and biological evaluation of 2'-methyl taxoids derived from baccatin III and 14beta-OH-baccatin III 1,14-carbonate” (J Med Chem, 2003).

What was measured:
A2780 [1] = experiment: In vitro cytotoxicity against A2780ADR cell line; settings: Homo sapiens
A2780 [2] = experiment: In vitro cytotoxicity against A2780CIS cell line; settings: Homo sapiens
A2780 [3] = experiment: In vitro cytotoxicity against A2780TAX cell line; settings: Homo sapiens
A2780 [4] = experiment: In vitro cytotoxicity against A2780 cell line; settings: Homo sapiens
MCF7R [5] = experiment: In vitro cytotoxicity against MCF7-R cell line; format: functional, cell-based; settings: Homo sapiens
MCF7 = experiment: In vitro cytotoxicity against MCF-7 cell line; format: functional, cell-based; settings: Homo sapiens
[6] = Potency differential in resistant to that of sensitive A2780ADR cell line; format: functional, A2780 ADR
[7] = Potency differential in resistant to that of sensitive A2780CIS cell line; format: functional
[8] = Potency differential in resistant to that of sensitive A2780TAX cell line; format: functional
[9] = (§1) Potency differential in resistant to that of sensitive MCF7-R cell line; format: functional
MCF7R [10] = experiment: as §1; format: functional, cell-based; settings: Homo sapiens

SMILES	IC50 (A2780 [1]) [nM]	IC50 (A2780 [2]) [nM]	IC50 (A2780 [3]) [nM]	IC50 (A2780 [4]) [nM]	IC50 (MCF7R [5]) [nM]	IC50 (MCF7) [nM]	Ratio [6]	Ratio [7]	Ratio [8]	Ratio [9]	Ratio (MCF7R [10])
CC(=O)O[C@H]1C(=O)[C@@]2(C)[C@H]([C@H](OC(=O)c3ccccc3)[C@]34OC(=O)O[C@H]3[C@H](OC(=O)[C@](C)(O)[C@@H](NC(=O)OC(C)(C)C)c3ccco3)C(C)=C1C4(C)C)[C@]1(OC(C)=O)CO[C@@H]1C[C@@H]2O	27.1	2.5	30.9	5.9	16	1.7	4	0.4	5	9.4	
CC(=O)O[C@H]1C(=O)[C@@]2(C)[C@H]([C@H](OC(=O)c3ccccc3)[C@]34OC(=O)O[C@H]3[C@H](OC(=O)[C@](C)(O)[C@@H](NC(=O)OC(C)(C)C)c3ccccc3)C(C)=C1C4(C)C)[C@]1(OC(C)=O)CO[C@@H]1C[C@@H]2O	52.9	1.7	299	2.5			21	0.7	118		
CC(=O)O[C@H]1C(=O)[C@@]2(C)[C@H]([C@H](OC(=O)c3ccccc3)[C@]3(O)C[C@H](OC(=O)[C@](C)(O)[C@@H](NC(=O)c4ccccc4)c4ccco4)C(C)=C1C3(C)C)[C@]1(OC(C)=O)CO[C@@H]1C[C@@H]2O	61.4	2.9	420	3.1			20	0.9	135		
CC(=O)O[C@H]1C(=O)[C@@]2(C)[C@H]([C@H](OC(=O)c3ccccc3)[C@]3(O)C[C@H](OC(=O)[C@](C)(O)[C@@H](NC(=O)OC(C)(C)C)c4ccco4)C(C)=C1C3(C)C)[C@]1(OC(C)=O)CO[C@@H]1C[C@@H]2O	41.3	3.3	312	2.9			14	1.1	107		
CC(=O)O[C@H]1C(=O)[C@@]2(C)[C@H]([C@H](OC(=O)c3ccccc3)[C@]34OC(=O)O[C@H]3[C@H](OC(=O)[C@](C)(O)[C@@H](NC(=O)OC(C)(C)C)C(F)(F)F)C(C)=C1C4(C)C)[C@]1(OC(C)=O)CO[C@@H]1C[C@@H]2O	79.3	2.8	285	4.6			17	0.6	61		
CC(=O)O[C@H]1C(=O)[C@@]2(C)[C@H]([C@H](OC(=O)c3ccccc3)[C@]34OC(=O)O[C@H]3[C@H](OC(=O)[C@H](O)[C@H](CC(C)C)NC(=O)OC(C)(C)C)C(C)=C1C4(C)C)[C@]1(OC(C)=O)CO[C@@H]1C[C@@H]2O [ORTATAXEL]	63	3.6	56	4.8	36	1.1	13	0.7	12		33
